The text below walks through data of US7094801B2, “Chalcone derivatives and their use to treat diseases” (Atherogenics, Inc., priority 2001, dated 2006).

The test system of assay [1] is rat adjuvant arthritis model. The assay is described as follows: DMARD activity in rat adjuvant arthritis (bone erosion, splenomegaly). It is filed as in vivo. The procedure: Male Lewis rats (150–175 g) from Charles River Laboratories were anesthetized on day 0 with 3–5% isoflurane anesthesia while the tail base was shaved and adjuvant mixture was injected. Fifty μL of adjuvant (10 mg/ml M. butyricum in mineral oil) was injected subcutaneously into two sites at the tail base. Paw swelling was monitored using a plethysmometer (UGO Basile), after shaving each leg to the level of the Achilles tendon to mark the level of immersion. A baseline paw measurement for both hindpaws was taken between d2-d5 and a second measurement was taken on day 7–8. Onset of paw swelling occurred rapidly between d9–11 and daily measurements were performed every weekday between d9 and day 15. Compounds of the invention and vehicles were dosed either prophylactically (d1–14), or therapeutically (d9–14) after swelling was confirmed. Solutions were injected subcutaneously or given orally by gavage 1–2 times per day. From day 0, rats were weighed every 2–3 days and overall health was monitored. Plasma drug levels, if desired, were measured in tail-vein derived blood samples taken on day 14. On day 15, blood samples were obtained by cardiac puncture, rats were euthanized with CO2, selected organs removed and both hindpaws were amputated and placed in 10% buffered formalin for histopathological analysis. See Biological Table 2. […]

The next assay deals with VCAM-1 mRNA. As to the kind of experiment: Lung VCAM-1 mRNA levels in LPS-challenged mice (quantitative RT-PCR). Particulars: subcutaneously 100 mg/kg/d, 2 hr prior to LPS injection (1 mg/kg), compared with vehicle controls. It counts as in vivo, mouse. The procedure: (§1) Balb/C mice (6–8 weeks) were injected with LPS (1 mg/kg; 5 mls/kg) and sacrificed 2 hr later. Blood was collected for plasma TNF-α levels and lungs for measurement of VCAM-1 mRNA levels by quantitative RT-PCR. Compound 3 administered subcutaneously at a dose of 100 mg/kg/d, 2 hr prior to LPS injection, inhibited TNF-α production by 80% and VCAM-1 expression by 60% compared with vehicle controls.

A further assay relates to IFN-gamma mRNA. The assay is described as follows: IFN-gamma mRNA in mouse lungs, ovalbumin sensitization and challenge (real-time PCR). It is filed as in vivo. The following applies: 100 mg/kg/d, compared with vehicle treated mice. The procedure: (§2) Lung tissues were collected from ovalbumin (Calbiochem) or vehicle (2% Cremophor/Bicarbonate) sensitized Balb/c mice (Charles River) with or without treatment of test compound (100 mg/kg/d, from day 0 to day 14). Total RNA samples were isolated by the Trizol method (Life Technologies, Grand Island, N.Y.) and quantitatively measured by UV spectrophotometer, as well as qualitatively examined by ethidum bromide stained gel electrophoresis. First strand cDNA templates were generated with oligo (dT) by Reverse Transcription Kit (Invitrogen, Carlsbad, Calif.). The initial amounts of mRNA of each samples were quantitatively determined by running a SYBR Green (Qiagen, Valencia, Calif.) based real-time PCR (programmed as: initial denaturation at 95° C. for 15 minutes, denaturation at 95° C. for 15 seconds, annealing and elongation at 51±1° C. for 1 minute for total 40 cycles) with a specific pair of primers (IDT Corporation, Coralville, Iowa) and control primers for GAPDH in iCycler IQ Optical System (Hercules, Calif.). The data were statistically analyzed by ANOVA and t-tests with multiple comparisons of means (n=5 and P<0.05 were considered significant).

The test system of the next assay is IL-2 mRNA. The assay is described as follows: IL-2 mRNA in mouse lungs, ovalbumin sensitization and challenge (real-time PCR). It is filed as in vivo. The following applies: 100 mg/kg/d, compared with vehicle treated mice. How it is done:
as §2

The next assay concerns MCP-1. As to the kind of experiment: In Vitro MCP-1 Activity Assay. It counts as cell-based. The following applies: Endothelial cell; human endothelial cells, TNF-α (1 ng/ml), approximately 16 hours; read-out: IC50 (amount of compound required to achieve a 50% reduction compared to control), MCP-1. The procedure: Cultured human endothelial cells were seeded in 96-well plates. On the following day cells were stimulated with TNF-α (1 ng/ml) in the presence or absence of compounds dissolved in DMSO. To establish a dose curve and an IC50, multiple concentrations in 2- to 5-fold increments were used. Cells were exposed to TNF-α and compounds for approximately 16 hours. The next day the cells were visually examined via light microscopy to score for visual signs of toxicity. Cell culture media, diluted 1:10, was analyzed by an MCP-1 immunoassay kit (R & D Systems). This assay is a sandwich immunoassay using immobilized anti-MCP-1 antibody in 96-well plate to capture secreted MCP-1 in cell culture media. Captured MCP-1 was subsequently detected with a horse radish peroxidase-conjugated anti-MCP-1 antibody for color development. Compound 3 expressed an IC50 values of >10(the amount of compound (μM) required to achieve a 50% reduction compared to control (cells stimulated with TNF-α only)).

The subject of the next assay is TNF-α. The assay is described as follows: Plasma TNF-α levels in LPS-challenged mice. Particulars: subcutaneously 100 mg/kg/d, 2 hr prior to LPS injection (1 mg/kg), compared with vehicle controls. It is filed as in vivo, mouse. The procedure: as §1
For another assay, the system named is IgE. As to the kind of experiment: Serum IgE levels in ovalbumin sensitized Balb/c mice. It is filed as in vivo, mouse. The following applies: 100 mg/kg/d from day 0 to day 14, compared with vehicle treated mice. The procedure: Peripheral blood samples were collected from ovalbumin (Calbiochem) or vehicle (2% Cremophor/Bicarbonate) treated Balb/c mice (Charles River) with or without administration of test compound (100 mg/kg/d, from day 0 to day 14). Serum was obtained by centrifugation and transferred into Microtainer serum tubes and frozen at −80° C. Mouse IgE ELISA Quantitation Kit (Bethyl Laboratories, Inc. Montgomery, Tex. or PharMingen, San Diego, Calif.) was applied to measure the IgE levels of serum samples. Immuno-reactions were performed as Kit protocol with IgE standard and serum samples in duplicates. The results were read in a microplate reader (Bio-Rad Model 550) at 450 nm and the amounts of IgE were calculated according to the standard curve. The limit of detection in our experiments was 7 ng/ml. Compound 3 administrated at 100 mg/kg/d from day 0 to day 14, reduced serum IgE levels by 38% in ovalbumin sensitized Balb/c mice compared with vehicle treated mice.

The next assay concerns IL-13 mRNA. As to the kind of experiment: IL-13 mRNA in mouse lungs, ovalbumin sensitization and challenge (real-time PCR). The following applies: 100 mg/kg/d, compared with vehicle treated mice. It counts as in vivo. How it is done:
as §2

In the next assay the test system is IL-1β. As to the kind of experiment: LPS-stimulated IL-1β secretion in human peripheral blood mononuclear cells. It is filed as cell-based. Particulars: PBMC; for Percent IL-1β Secreted: LPS (1–2 μg/ml) 3 hours. How it is done: Human peripheral blood mononuclear cells were treated with or without Compound 3 for 1 hour, then stimulated with LPS (1–2 μg/ml) for 3 hours. Condition media was collected and IL-1β measured using an ELISA kit. […] See Biological Table 4

The test system of the next assay is IL-4 mRNA. As to the kind of experiment: IL-4 mRNA in mouse lungs, ovalbumin sensitization and challenge (real-time PCR). The following applies: 100 mg/kg/d, compared with vehicle treated mice. It counts as in vivo. How it is done: as §2
Another assay has as its system IL-5 mRNA. The assay is described as follows: IL-5 mRNA in mouse lungs, ovalbumin sensitization and challenge (real-time PCR). It is filed as in vivo. Particulars: 100 mg/kg/d, compared with vehicle treated mice. The procedure: as §2
In assay [2] the test system is Human Aortic Smooth Mucle Cells (HAoSMC). The assay is described as follows: Smooth Muscle Cell Proliferation Protocol (3H-thymidine incorporation). It counts as cell-based. The following applies: HAoSMC stimulated by 5% serum. How it is done:
Human Aortic Smooth Mucle Cells (HAoSMC) were obtained from Clonetics, Inc. and were used below passage 10. Cells were seeded in 24-well plates. When cells were 80% confluent, they were made quiescent by adding media containing 0.2% serum (as compared to 5% serum in normal culture media) for 48 hours. The cells were, then, stimulated by 5% serum in the presence or absence of compounds dissolved in DMSO. […] Rapamycin (at 1 and 0.1 μM) was used as a positive control for the assay. After a 20 hour incubation with or without test compounds, 3H-thymidine (0.5 μCi/well) was added to the cells for 4 hours of labeling. Washed cells were then lysed in NaOH and the amount of 3H-thymidine incorporation was determined. Cytotoxicity of the drug was measured by use of the CytolTox 96 assay kit (Promega, Madison, Wis.).

Where only a bound is given, the exact number is not on record here.

Regarding `COc1cc(OC)c(-c2cc3ccccc3s2)cc1/C=C/C(=O)c1ccc(C(=O)O)cc1` [Compound 3], the splenomegaly entry in assay [1] (prophylactically, 100, 50 and 25 mg/kg/d, b.i.d., s.c.) is on record as “inhibit splenomegaly”. For the same compound, the “bone erosion in the ankle joint by histopathological analysis” value in assay [1] (twice daily subcutaneous doses of 60, 40 and 20 mg/kg/d, prophylactically) is “inhibit bone erosion”. In addition, in the assay with VCAM-1 mRNA, the “inhibition of VCAM-1 expression (lung mRNA)” value was 60%. Moreover, the “effect on IFN-gamma mRNA in the lung” value in the assay on IFN-gamma mRNA was “without significantly affecting”. In the assay on IL-2 mRNA, the “effect on IL-2 mRNA in the lung” value is “without significantly affecting”. In addition, the IC50 in the assay on MCP-1 was over 10000 nM; in assay [2] it was 500 nM. In the assay with TNF-α, the “inhibition of TNF-α production (plasma)” value amounted to 80%. In addition, in the assay with IgE, the “reduction of serum IgE levels” value amounted to 38%. For the same compound, the “inhibition of ovalbumin induced IL-13 mRNA in the lung” value in the assay on IL-13 mRNA was 82%. Besides, the “Percent IL-1β Secreted” value with IL-1β (1.25 μM) is over 40%; in the assay on IL-1β (2.5 μM) it was over 10%; with IL-1β (5 μM) it was over 5%; in the assay on IL-1β (10 μM), over 1%. Further, the “inhibition of LPS-stimulated IL-1β secretion” value in the assay on IL-1β (1 hour pretreatment, LPS 3 hours) is “dose dependent inhibition”. For the same compound, in the assay with IL-4 mRNA, the “inhibition of ovalbumin induced IL-4 mRNA in the lung” value is recorded as 68%. Also, the “inhibition of ovalbumin induced IL-5 mRNA in the lung” value in the assay with IL-5 mRNA was determined as 98%.
